According to paper PMC11062899, “De novo development of small cyclic peptides that are orally bioavailable” (Nature Chemical Biology, 2023):
Where “and” joins values, the source holds several entries; their conditions need not be identical. Equal values may be shown once. Read-outs that look alike come from different tables or passages of the source.

What was measured:
human α-thrombin = human α-thrombin (Homo sapiens, UniProt P00734); test: Protease inhibition, Ki for human α-thrombin (fluorogenic substrate Z-Gly-Gly-Arg-AMC); assay type: biochemical; conditions: human alpha thrombin; for Slope normalized to DMSO (proteolytic substrate cleavage over time): replicates R1-R3
How it was run: (§1)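 Ki derived through Cheng–Prusoff from IC50s (four-parameter logistic fit) against activity of peptide-free controls. Product fluorescence was read every 3 min over 30 min at 25 °C, substrate Z-Gly-Gly-Arg-AMC at 50 μM. Enzyme was 2 nM human or 3 nM rat α-thrombin, pH 7.4 buffer.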

[1] = Passive artificial membrane permeability (PAMPA)
porcine pepsin = biological target: T1, porcine pepsin (Sus scrofa, UniProt P00791); test: Peptide stability in simulated gastric fluid (SGF); assay type: in vitro ADME
T1 construct: 0.32 g of porcine pepsin (Sigma-Aldrich, P7125) was dissolved under gentle agitation; purchased Sigma-Aldrich P7125
How it was run: (§2)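 Peptide from a 1 mM DMSO stock was added to fluid pre-warmed at 37 °C. SGF was pH 1.2 NaCl with porcine pepsin (0.32 g per 100 ml), and SIF was pH 6.8 potassium phosphate with porcine pancreatin (1 g per 100 ml). Supernatant peptide was quantified by LC–MS, with residual expressed as T1/T0.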

rat α-thrombin = biological target: T2, rat α-thrombin (Rattus norvegicus, UniProt P18292); test: Protease inhibition, Ki for rat α-thrombin (fluorogenic substrate Z-Gly-Gly-Arg-AMC); assay type: biochemical; conditions: rat alpha thrombin; for Slope normalized to DMSO (proteolytic substrate cleavage over time): replicates R1-R3
T2 construct: rat α-thrombin (Molecular Innovations) were used at final concentrations of 2 nM and 3 nM; purchased Molecular Innovations
How it was run: as §1

porcine pancreatin = test: Peptide stability in simulated intestinal fluid (SIF); assay type: in vitro ADME; conditions: after 8 h vs 0 h (TIC)
How it was run: as §2

[2] = as above; assay type: in vitro ADME, porcine; conditions: simulated gi fluid; 8 h, 37 °C, pH 6.8; read-out: Proteolytic stability: SIF (8 h) % remaining
How it was run: as §2

T1 sequence (P00791 60-385): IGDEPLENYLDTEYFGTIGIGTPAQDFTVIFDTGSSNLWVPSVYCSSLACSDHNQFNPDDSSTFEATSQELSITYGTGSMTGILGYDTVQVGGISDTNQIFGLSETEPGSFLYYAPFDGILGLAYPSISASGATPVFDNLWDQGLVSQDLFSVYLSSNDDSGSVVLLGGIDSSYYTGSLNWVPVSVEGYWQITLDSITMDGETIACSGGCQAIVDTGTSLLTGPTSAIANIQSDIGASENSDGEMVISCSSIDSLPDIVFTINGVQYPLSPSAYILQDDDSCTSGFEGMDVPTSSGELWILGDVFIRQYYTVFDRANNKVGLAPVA

Ki (human α-thrombin; average of R1-R3, read-out: Ki Average, human alpha thrombin inhibition): 20.6 nM
Slope normalized to DMSO (proteolytic substrate cleavage over time) (human α-thrombin; peptide 1.02E-03 uM): 99.8 and 96.2 and 96.4
Slope normalized to DMSO (proteolytic substrate cleavage over time) (human α-thrombin; peptide 1.04E+00 uM): 4.2 and 21.2 and 8.1
Slope normalized to DMSO (proteolytic substrate cleavage over time) (human α-thrombin; peptide 1.27E-04 uM): 99.4 and 96.4 and 91.4
Slope normalized to DMSO (proteolytic substrate cleavage over time) (human α-thrombin; peptide 1.30E-01 uM): 13.4 and 22.3 and 23.1
Slope normalized to DMSO (proteolytic substrate cleavage over time) (human α-thrombin; peptide 1.59E-05 uM): 98.7 and 104.2 and 99.3
Slope normalized to DMSO (proteolytic substrate cleavage over time) (human α-thrombin; peptide 1.63E-02 uM): 59.7 and 68.6 and 65.4
Slope normalized to DMSO (proteolytic substrate cleavage over time) (human α-thrombin; peptide 1.67E+01 uM): 1.8 and 5.4 and -0.5
Slope normalized to DMSO (proteolytic substrate cleavage over time) (human α-thrombin; peptide 2.03E-03 uM): 99.7 and 85.8 and 91.5
Slope normalized to DMSO (proteolytic substrate cleavage over time) (human α-thrombin; peptide 2.08E+00 uM): 2.6 and 15.2 and 7.7
Slope normalized to DMSO (proteolytic substrate cleavage over time) (human α-thrombin; peptide 2.54E-04 uM): 103.4 and 95.2 and 94.0
Slope normalized to DMSO (proteolytic substrate cleavage over time) (human α-thrombin; peptide 2.60E-01 uM): 9.5 and 17.0 and 11.6
Slope normalized to DMSO (proteolytic substrate cleavage over time) (human α-thrombin; peptide 3.18E-05 uM): 100.4 and 94.1 and 100.2
Slope normalized to DMSO (proteolytic substrate cleavage over time) (human α-thrombin; peptide 3.26E-02 uM): 41.8 and 49.6 and 51.1
Slope normalized to DMSO (proteolytic substrate cleavage over time) (human α-thrombin; peptide 3.33E+01 uM): 1.5 and 2.2 and 1.9
Slope normalized to DMSO (proteolytic substrate cleavage over time) (human α-thrombin; peptide 4.07E-03 uM): 80.8 and 82.5 and 73.0
Slope normalized to DMSO (proteolytic substrate cleavage over time) (human α-thrombin; peptide 4.17E+00 uM): -1.2 and 8.8 and 5.3
Slope normalized to DMSO (proteolytic substrate cleavage over time) (human α-thrombin; peptide 5.09E-04 uM): 101.9 and 94.6 and 97.3
Slope normalized to DMSO (proteolytic substrate cleavage over time) (human α-thrombin; peptide 5.21E-01 uM): 4.7 and 16.3 and 9.9
Slope normalized to DMSO (proteolytic substrate cleavage over time) (human α-thrombin; peptide 6.36E-05 uM): 101.6 and 98.2 and 102.0
Slope normalized to DMSO (proteolytic substrate cleavage over time) (human α-thrombin; peptide 6.51E-02 uM): 27.8 and 39.2 and 31.3
Slope normalized to DMSO (proteolytic substrate cleavage over time) (human α-thrombin; peptide 6.67E+01 uM): 4.9 and 8.1 and 5.5
Slope normalized to DMSO (proteolytic substrate cleavage over time) (human α-thrombin; peptide 7.95E-06 uM): 99.9 and 99.1 (2×)
Slope normalized to DMSO (proteolytic substrate cleavage over time) (human α-thrombin; peptide 8.14E-03 uM): 73.2 and 74.4 and 76.4
Slope normalized to DMSO (proteolytic substrate cleavage over time) (human α-thrombin; peptide 8.33E+00 uM): -0.9 and 2.2 and 1.0
IC50 (human α-thrombin; single replicates R1-R3, read-out: IC50, human alpha thrombin inhibition): 21.8 nM and 29.6 nM and 28.8 nM
PAMPA permeability: % permeability ([1]; 50 μM, 12–18 h, acceptor concentration relative to equilibrium): 31 ± 10%
Papp at 50 μM ([1]; PAMPA, pH 7.4): 3.47 ×10⁻⁶ cm/s
Permeability% Average ([1]; top well sample vs theoretical equilibrium sample (TIC), average of R1-R3): 30.8%
Permeability% ([1]; top well sample vs theoretical equilibrium sample (TIC), single replicates R1-R3): 38.94% and 34.26% and 19.17%
SGF stability, Residual peptide Average (porcine pepsin; after 8 h vs 0 h (TIC), average of R1-R3): 106.20
SGF stability, Residual peptide (porcine pepsin; after 8 h vs 0 h (TIC), single replicates R1-R3): 119.66 and 103.22 and 95.72
remaining at 8 h (porcine pepsin; simulated gi fluid, 8 h, 37 °C, pH 1.2, read-out: Proteolytic stability: SGF (8 h) % remaining): 106 ± 12%
Ki (rat α-thrombin; average of R1-R3, read-out: Ki Average, rat alpha thrombin inhibition): 4.1 nM
Slope normalized to DMSO (proteolytic substrate cleavage over time) (rat α-thrombin; peptide 1.02E-03 uM): 91.4 and 90.1 and 86.3
Slope normalized to DMSO (proteolytic substrate cleavage over time) (rat α-thrombin; peptide 1.04E+00 uM): 6.1 and 5.3 and 3.6
Slope normalized to DMSO (proteolytic substrate cleavage over time) (rat α-thrombin; peptide 1.27E-04 uM): 98.4 and 98.1 and 97.2
Slope normalized to DMSO (proteolytic substrate cleavage over time) (rat α-thrombin; peptide 1.30E-01 uM): 10.0 and 9.6 and 8.5
Slope normalized to DMSO (proteolytic substrate cleavage over time) (rat α-thrombin; peptide 1.59E-05 uM): 101.7 and 102.0 and 103.9
Slope normalized to DMSO (proteolytic substrate cleavage over time) (rat α-thrombin; peptide 1.63E-02 uM): 36.7 and 39.2 and 35.6
Slope normalized to DMSO (proteolytic substrate cleavage over time) (rat α-thrombin; peptide 1.67E+01 uM): 4.9 and 5.5
Slope normalized to DMSO (proteolytic substrate cleavage over time) (rat α-thrombin; peptide 2.03E-03 uM): 80.6 and 80.8 and 78.9
Slope normalized to DMSO (proteolytic substrate cleavage over time) (rat α-thrombin; peptide 2.08E+00 uM): 5.5 and 5.7 and 3.5
Slope normalized to DMSO (proteolytic substrate cleavage over time) (rat α-thrombin; peptide 2.54E-04 uM): 97.2 and 96.7 and 93.7
Slope normalized to DMSO (proteolytic substrate cleavage over time) (rat α-thrombin; peptide 2.60E-01 uM): 7.6 and 5.4 and 6.9
Slope normalized to DMSO (proteolytic substrate cleavage over time) (rat α-thrombin; peptide 3.18E-05 uM): 100.1 and 100.5 and 98.3
Slope normalized to DMSO (proteolytic substrate cleavage over time) (rat α-thrombin; peptide 3.26E-02 uM): 26.4 and 25.2 and 22.3
Slope normalized to DMSO (proteolytic substrate cleavage over time) (rat α-thrombin; peptide 3.33E+01 uM): 4.6 and 5.2 and 4.1
Slope normalized to DMSO (proteolytic substrate cleavage over time) (rat α-thrombin; peptide 4.07E-03 uM): 63.4 and 62.5 and 70.6
Slope normalized to DMSO (proteolytic substrate cleavage over time) (rat α-thrombin; peptide 4.17E+00 uM): 4.9 and 5.8 and -9.8
Slope normalized to DMSO (proteolytic substrate cleavage over time) (rat α-thrombin; peptide 5.09E-04 uM): 93.0 and 91.4 and 91.1
Slope normalized to DMSO (proteolytic substrate cleavage over time) (rat α-thrombin; peptide 5.21E-01 uM): 5.7 and 6.4 and 5.0
Slope normalized to DMSO (proteolytic substrate cleavage over time) (rat α-thrombin; peptide 6.36E-05 uM): 98.0 and 98.8 and 98.4
Slope normalized to DMSO (proteolytic substrate cleavage over time) (rat α-thrombin; peptide 6.51E-02 uM): 15.4 and 15.1 and 13.7
Slope normalized to DMSO (proteolytic substrate cleavage over time) (rat α-thrombin; peptide 6.67E+01 uM): 5.1 and 5.7 and 2.7
Slope normalized to DMSO (proteolytic substrate cleavage over time) (rat α-thrombin; peptide 7.95E-06 uM): 105.0 and 102.5 and 101.4
Slope normalized to DMSO (proteolytic substrate cleavage over time) (rat α-thrombin; peptide 8.14E-03 uM): 49.4 and 48.0 and 46.0
Slope normalized to DMSO (proteolytic substrate cleavage over time) (rat α-thrombin; peptide 8.33E+00 uM): 5.4 and 5.3 and 3.8
IC50 (rat α-thrombin; single replicates R1-R3, read-out: IC50, rat alpha thrombin inhibition): 7.27 nM and 7.19 nM and 7.91 nM
SIF stability, Residual peptide Average (porcine pancreatin; average of R1-R3): 83.45
SIF stability, Residual peptide (porcine pancreatin; single replicates R1-R3): 93.62 and 67.15 and 89.58
remaining at 8 h [2]: 83 ± 14%
Compound: O=C1CSCCC[C@H](NC(=O)c2ccc(Cl)s2)C(=O)N[C@@H](Cc2ccccc2)C(=O)N2CCC[C@@H]2CC(=O)NCCSC1 [compound 37]
Ki (human α-thrombin; single replicates R1-R3, read-out: Ki, human alpha thrombin inhibition): 16.8 nM (2×) and 22.8 nM (2×) and 22.2 nM (2×)
Ki (rat α-thrombin; single replicates R1-R3, read-out: Ki, rat alpha thrombin inhibition): 4.03 nM (2×) and 3.98 nM (2×) and 4.38 nM (2×)
